Data taken from ChEMBL document CHEMBL4814073, “Ring-opening of five-membered heterocycles conjugated 4-isopropylresorcinol scaffold-based benzamides as HSP90 inhibitors suppressing tumor growth in vitro and in vivo” (Eur J Med Chem, 2021).
Calls of active or inactive are those of the source. The calls are words filed in the database; no cut-off is given here.

Experiments:
[1] = Apparent permeability across basolateral to apical in human Caco2 cells by LC-MS/MS analysis; type: ADME, cell-based; conditions: Caco-2, read-out: permeability
[2] = Apparent permeability across apical to basolateral in human Caco2 cells by LC-MS/MS analysis; type: ADME, cell-based; conditions: Caco-2, read-out: permeability
Heat shock protein HSP90 [3] = target: T1, Heat shock protein HSP90 (Homo sapiens, UniProt P07900+P08238); experiment: Inhibition of HSP90 in human A549 cells assessed as downregulation of FAK expression incubated for 24 hrs by immunoblot analysis; type: cell-based; conditions: dose microM <=3, time 24.0 hrs
Heat shock protein HSP90 [4] = target: T1, Heat shock protein HSP90; experiment: Inhibition of HSP90 in human A549 cells assessed as downregulation of FAK expression at 3 uM by immunoblot analysis; type: cell-based; conditions: time hrs <=24, TDE = time-dependent effect
Heat shock protein HSP90 [5] = target: T1, Heat shock protein HSP90; experiment: Inhibition of HSP90 in human A549 cells assessed as downregulation of Akt expression incubated for 24 hrs by immunoblot analysis; type: cell-based; conditions: dose microM <=3, time 24.0 hrs
Heat shock protein HSP90 [6] = target: T1, Heat shock protein HSP90; experiment: Inhibition of HSP90 in human A549 cells assessed as downregulation of Akt expression at 3 uM by immunoblot analysis; type: cell-based; conditions: time hrs <=24, TDE = time-dependent effect
A549 [7] = experiment: Induction of EGFR degradation in human A549 cells assessed as reduction in eGFR expression measured after 24 hrs by immunoblot analysis; type: functional, cell-based; conditions: dose microM <=3, time 24.0 hrs
A549 [8] = experiment: Induction of EGFR degradation in human A549 cells assessed as reduction in eGFR expression at 3 uM by immunoblot analysis; type: functional, cell-based; conditions: time hrs <=24, TDE = time-dependent effect
A549 [9] = experiment: Inhibition of MAPK signaling pathway in human A549 cells at 3 uM incubated upto 24 hrs by immunoblot analysis; type: cell-based; conditions: time hrs <=24, TDE = time-dependent effect
A549 [10] = experiment: Antimigratory activity against human A549 cells assessed as inhibition of migration at 0.1 to 3 uM incubated for 6 hrs by crystal violet staining based by Boyden chamber method; type: functional, cell-based; conditions: dose 0.1-3 µM
A549 [11] = experiment: Induction of cell cycle arrest in human A549 cells assessed as upregulation of cyclinB1 protein expression at 0.3 uM incubated for 24 hrs by Western blot analysis; type: functional, cell-based
A549 [12] = experiment: Induction of apoptosis in human A549 cells assessed as increase in cleaved caspase 7 protein expression at 0.3 to 3 uM measured after 18 hrs by western blot analysis; type: functional, cell-based; conditions: dose 0.3-3 µM
Cytochrome P450 2B6 = target: T2, Cytochrome P450 2B6 (Homo sapiens, UniProt P20813); experiment: Inhibition of CYP2B6 in human liver microsomes using bupropion as substrate by LC-MS/MS analysis; type: ADME
T2 sequence (P20813 whole entry): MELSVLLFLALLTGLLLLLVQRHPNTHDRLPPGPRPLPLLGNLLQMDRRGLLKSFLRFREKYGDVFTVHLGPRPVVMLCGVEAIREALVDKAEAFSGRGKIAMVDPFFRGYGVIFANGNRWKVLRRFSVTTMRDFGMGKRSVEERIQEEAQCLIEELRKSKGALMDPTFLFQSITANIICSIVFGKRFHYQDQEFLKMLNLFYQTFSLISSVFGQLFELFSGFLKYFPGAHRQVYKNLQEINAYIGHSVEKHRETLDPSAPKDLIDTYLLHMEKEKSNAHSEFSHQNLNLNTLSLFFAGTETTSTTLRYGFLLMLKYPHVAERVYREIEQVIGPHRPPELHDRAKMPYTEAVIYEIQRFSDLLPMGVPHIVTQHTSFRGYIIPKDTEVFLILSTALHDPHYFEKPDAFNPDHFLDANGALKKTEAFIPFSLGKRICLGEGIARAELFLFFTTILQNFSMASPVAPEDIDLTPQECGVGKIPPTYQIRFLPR

Cytochrome P450 2C8 = target: T3, Cytochrome P450 2C8 (Homo sapiens, UniProt P10632); experiment: Inhibition of CYP2C8 in human liver microsomes using amodiaquine as substrate by LC-MS/MS analysis; type: ADME
T3 sequence (P10632 whole entry): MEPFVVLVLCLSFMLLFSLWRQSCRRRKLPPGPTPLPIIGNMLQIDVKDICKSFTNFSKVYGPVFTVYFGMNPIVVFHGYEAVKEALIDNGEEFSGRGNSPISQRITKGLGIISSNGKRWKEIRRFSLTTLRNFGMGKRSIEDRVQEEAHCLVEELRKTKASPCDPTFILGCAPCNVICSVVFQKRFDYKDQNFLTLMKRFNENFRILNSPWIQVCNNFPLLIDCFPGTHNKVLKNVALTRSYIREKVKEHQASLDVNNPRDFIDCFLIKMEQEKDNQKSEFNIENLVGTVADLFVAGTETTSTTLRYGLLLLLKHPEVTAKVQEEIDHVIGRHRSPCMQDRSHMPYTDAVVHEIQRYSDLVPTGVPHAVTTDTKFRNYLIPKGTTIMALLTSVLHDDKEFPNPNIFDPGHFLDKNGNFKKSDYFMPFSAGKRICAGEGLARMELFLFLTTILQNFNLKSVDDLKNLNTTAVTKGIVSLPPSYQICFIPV

Cytochrome P450 2C19 = Cytochrome P450 2C19 (Homo sapiens, UniProt P33261); experiment: Inhibition of CYP2C19 in human liver microsomes using S-mephenytoin as substrate by LC-MS/MS analysis; type: ADME
[13] = Tmax in Sprague-Dawley rat at 2 mg/kg, iv measured after 1 hrs by LC-MS/MS analysis; type: ADME, organism-based; conditions: in vivo
[14] = Cmax in Sprague-Dawley rat at 2 mg/kg, iv measured after 1 hrs by LC-MS/MS analysis; type: ADME, organism-based; parameters: route intravenous, time 1 hrs, dose 2 mg/kg; conditions: in vivo
[15] = AUC (0 to t) in Sprague-Dawley rat at 2 mg/kg, iv measured after 1 hrs by LC-MS/MS analysis; type: ADME, organism-based; parameters: route intravenous, time 1 hrs, dose 2 mg/kg; conditions: in vivo
[16] = AUC (0 to infinity) in Sprague-Dawley rat at 20 mg/kg, po measured after 1 hrs by LC-MS/MS analysis; type: ADME, organism-based; parameters: route oral, time 1 hrs, dose 20 mg/kg; conditions: in vivo
[17] = Metabolic stability in CD1 mouse hepatocytes assessed as half life by LC-MS/MS analysis; type: ADME, cell-based, Hepatocyte
[18] = Metabolic stability in Beagle dog hepatocytes assessed as half life by LC-MS/MS analysis; type: ADME, cell-based, Canis lupus familiaris, Hepatocyte
A549 [19] = experiment: Induction of apoptosis in human A549 cells expressing wild type p53 assessed as caspase 3 cleavage at 0.3 uM incubated for 24 hrs by Western blot analysis; type: functional, cell-based
[20] = Hepatic clearance in Sprague-Dawley rat by LC-MS/MS analysis; type: ADME, tissue-based, Hepatocyte; conditions: hepatocytes
CYP2C8 = target: T4, CYP2C8 (Homo sapiens, UniProt P10632); experiment: Inhibition of CYP2C8 in human liver microsomes using amodiaquine as substrate at 50 uM by LC-MS/MS analysis; type: ADME; conditions: probe amodiaquine
T4 sequence (P10632 whole entry): T3 sequence (P10632 whole entry)

[21] = Hepatic clearance in human hepatocytes by LC-MS/MS analysis
NCI-H1975 = experiment: Antiproliferative activity against human NCI-H1975 cells harbouring EGFR L858R/T790M mutant measured after 48 hrs by SRB assay; conditions: NCI-H1975, 48 h
[22] = Toxicity in BALB/c mouse xenografted with human A549 cells assessed as reduction in body weight at 25 to 50 mg/kg, po treated daily relative to control; conditions: in vivo
[23] = Toxicity in BALB/c mouse xenografted with human H1975 cells assessed as reduction in body weight at 25 to 50 mg/kg, po treated daily relative to control; conditions: in vivo

Chain of Cytochrome P450 2C19 (P33261 whole entry): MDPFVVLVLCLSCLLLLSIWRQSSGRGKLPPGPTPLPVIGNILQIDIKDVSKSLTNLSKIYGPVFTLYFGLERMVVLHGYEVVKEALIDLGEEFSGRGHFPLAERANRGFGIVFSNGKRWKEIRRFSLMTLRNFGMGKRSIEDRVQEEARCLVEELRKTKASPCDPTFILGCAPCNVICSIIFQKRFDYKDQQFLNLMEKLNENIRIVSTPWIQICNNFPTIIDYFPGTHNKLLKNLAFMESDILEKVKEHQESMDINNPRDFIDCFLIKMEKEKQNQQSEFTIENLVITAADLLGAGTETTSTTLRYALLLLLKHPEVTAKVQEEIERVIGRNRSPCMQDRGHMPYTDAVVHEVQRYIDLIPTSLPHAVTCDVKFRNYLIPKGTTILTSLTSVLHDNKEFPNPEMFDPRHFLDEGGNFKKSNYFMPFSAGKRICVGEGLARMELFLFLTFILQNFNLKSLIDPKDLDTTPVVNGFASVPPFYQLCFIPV

CCN(C(=O)c1cc(C(C)C)c(O)cc1O)c1cccnc1
Papp B→A [1]: 30.6 ×10⁻⁶ cm/s | Papp A→B [2]: 31.9 ×10⁻⁶ cm/s | inhibition (Heat shock protein HSP90 [3]): Dose-Dependent Effect | inhibition (Heat shock protein HSP90 [4]): Tde | inhibition (Heat shock protein HSP90 [5]): Dose-Dependent Effect | inhibition (Heat shock protein HSP90 [6]): Tde | Activity (A549 [7]): Dose-Dependent Effect | Activity (A549 [8]): Tde | inhibition (A549 [9]): Tde | Activity (A549 [10]): Active | Activity (A549 [11]): Active | Activity (A549 [12]): Active | IC50 (Cytochrome P450 2B6): 37.2 µM | IC50 (Cytochrome P450 2C8): > 50 µM | IC50 (Cytochrome P450 2C19): 7.8 µM | Tmax [13]: 1.8 min | Cmax [14]: 1580 ng/mL | AUCt [15]: 487 ng·h/mL | AUC [16]: 811 ng·h/mL | half-life [17]: 5.31 min | half-life [18]: 39.2 min | Activity (A549 [19]): inactive | CLhep predicted [20]: 51.2 mL/min/kg | inhibition at 50 µM (CYP2C8): 54.3% | CLhep predicted [21]: 14.7 mL/min/kg | GI50 (NCI-H1975): 0.05 µM | Activity [22]: Non-Toxic | Activity [23]: Non-Toxic
